From patent publication US20250026741A1, “INHIBITORS OF THE ONCOGENIC SHP2 PHOSPHATASE AND USES THEREOF” (Sanford Burnham Prebys Medical Discovery Institute, priority 2021, published 2025)
Read-outs that look alike come from different tables or passages of the source.

Legend:
Type in all cases: biochemical
[1] = target: striatal-enriched tyrosine phosphatase (STEP) catalytic domain (Homo sapiens (Human), UniProt P54829); assay: DiFMUP phosphatase inhibition assay, STEP; settings: catalytic domain, DiFMUP at Km (4 μM)
Method: (§1) Selectivity is one of the biggest challenges in PTP inhibitor development. […] Similar to SHP2, we adapted a 384-well plate format DiFMUP assay for recombinant PTP1B and STEP and performed Michaelis-Menten experiments to determine DiFMUP Km values for each phosphatase. IC50 values of our inhibitors for PTP1B and STEP were determined in 10-point dose-response assays with DiFMUP used at the concentration corresponding to the respective Km value. […] Other inhibitors with good relative selectivity for SHP2 included #02 (13-fold selective over PTP1B; 73-fold selective over STEP) and #05 (5-fold selective over PTP1B; >71-fold selective over STEP).
(§2) SHP2 inhibitors were tested at room temperature (RT) in a 384-well plate format standard phosphatase fluorescence intensity assay using DiFMUP (Invitrogen/Thermo Fisher Scientific, Carlsbad, CA) as a substrate and a total reaction volume of 25 μL. SHP2 inhibitors or vehicle (DMSO) were spotted in triplicate into a black Greiner FLUOTRAC™ 200 384-well microplate (#781076, Greiner) for a 10-point dose-response assay using an Echo®555 Liquid Handler (Labcyte, Inc., San Jose, CA). PTP working solutions were prepared at a 0.625 nM concentration (for a final concentration of 0.5 nM) in buffer containing 50 mM Bis-Tris pH 6.0, 50 mM NaCl, 5 mM DTT, and 0.01% Tween® 20. Prior to the assay, a dually phosphorylated insulin receptor substrate 1 (IRS-1) peptide [625 nM (500 nMfinal) (30)] was added to full-length WT SHP2 working solutions and incubated for 20 min. DiFMUP working solutions at 5× final concentration were prepared in 50 mM Bis-Tris pH 6.0, 50 mMNaCl, and 0.01% Tween 20. 20 μL of PTP working solution was dispensed into the microplate and incubated with inhibitor for 20 min at RT. […] The reaction was initiated by addition of 5 μL DiFMUP working solutions. Fluorescence intensity was measured in kinetic mode (every minute for 7 or 10 min) using a Tecan Spark® Multimode Microplate Reader (Tecan, Groedig, Austria) with an excitation wavelength of 360 nm and an emission wavelength of 460 nm. The initial rates were determined from the linear progression curves of the PTP reaction. The nonenzymatic hydrolysis of the substrate was corrected by using a control without addition of enzyme. IC50 values were calculated from the corrected initial rates by nonlinear regression using the program GraphPad Prism (GraphPad Software, Inc., San Diego, CA) Version 8. Dose-response inhibition assays of SHP2cat using the substrate OMFP were performed similarly as described above for DiFMUP. OMFP was used at a concentration corresponding to its Km value for SHP2cat (50 μM final). Fluorescence intensity was measured in kinetic mode (every minute for 10 min) using a Tecan Spark Multimode Microplate Reader with an excitation wavelength of 485 nm and an emission wavelength of 535 nm. Initial rates were determined and IC50 vales calculated as described above.

[2] = target: full-length SHP2 wild-type (SHP2-WT) (Homo sapiens (Human), UniProt Q06124); assay: DiFMUP fluorescence intensity phosphatase inhibition assay, SHP2-WT activated with IRS-1 peptide; settings: DiFMUP at Km (60 μM), IRS-1 peptide activated
From the text: (§3) To test the synthesized compounds for their potential to inhibit SHP2 activity, a fluorescence intensity-based assay using 6,8-difluoro-4-methylumbelliferyl phosphate (DiFMUP) as the substrate was adapted for three recombinant SHP2 constructs: 1) the SHP2 catalytic domain (SHP2cat; residues 248-527), 2) the full-length SHP2-E76K oncogenic mutant, and 3) the full-length SHP2 wild-type (SHP2-WT). The recombinant SHP2 proteins were expressed and purified. A dually phosphorylated peptide derived from the insulin receptor substrate 1 (IRS-1) served as a surrogate binding protein and was used to activate SHP2-WT. […] Michaelis-Menten experiments to determine the DiFMUP Michaelis-Menten constant (Kmn) for each SHP2 construct were performed and yielded the following values: SHP2-WT, Km=60 μM; SHP2-E76K, Km=20 μM; SHP2cat, Km=20 μM. Relative maximum rates (Vmax) of the DiFMUP reactions were as follows: SHP2-WT, Vmax=871 AFU/min; SHP2-E76K, Vmax, =2730 AFU/min; SHP2cat, Vmax=2912 AFU/min. IC50 values for each compound were determined from initial rates in 10-point dose-response assays using DiFMUP at a concentration corresponding to its Km value for the respective SHP2 construct.
as §2

[3] = target: full-length SHP2-E76K oncogenic mutant (Homo sapiens (Human), UniProt Q06124, E76K); assay: DiFMUP fluorescence intensity phosphatase inhibition assay, SHP2-E76K; settings: DiFMUP at Km (20 μM), 10-point dose-response; read-out: SHP2-E76K IC50
From the text: as §3, §2

[4] = target: PTP1B catalytic domain (Homo sapiens (Human), UniProt P18031); assay: DiFMUP phosphatase inhibition assay, PTP1B; settings: catalytic domain, DiFMUP at Km (25 μM)
Method: as §1, §2

[5] = target: SHP2 catalytic domain (SHP2cat; residues 248-527) (Homo sapiens (Human), UniProt Q06124); assay: DiFMUP fluorescence intensity phosphatase inhibition assay, SHP2cat
From the text: as §3, §2

[6] = DiFMUP at Km (20 μM), read-out: SHP2cat IC50

Sequence of SHP2 catalytic domain (SHP2cat; residues 248-527) (Q06124 248-527): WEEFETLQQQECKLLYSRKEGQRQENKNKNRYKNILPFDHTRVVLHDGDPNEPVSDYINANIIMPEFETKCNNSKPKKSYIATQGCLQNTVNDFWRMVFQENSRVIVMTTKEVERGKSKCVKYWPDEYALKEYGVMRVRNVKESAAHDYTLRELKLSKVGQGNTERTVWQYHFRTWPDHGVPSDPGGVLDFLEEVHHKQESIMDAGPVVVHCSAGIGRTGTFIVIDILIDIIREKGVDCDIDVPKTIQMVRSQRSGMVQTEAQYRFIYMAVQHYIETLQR
Sequence of full-length SHP2-E76K oncogenic mutant (Q06124 whole entry E76K): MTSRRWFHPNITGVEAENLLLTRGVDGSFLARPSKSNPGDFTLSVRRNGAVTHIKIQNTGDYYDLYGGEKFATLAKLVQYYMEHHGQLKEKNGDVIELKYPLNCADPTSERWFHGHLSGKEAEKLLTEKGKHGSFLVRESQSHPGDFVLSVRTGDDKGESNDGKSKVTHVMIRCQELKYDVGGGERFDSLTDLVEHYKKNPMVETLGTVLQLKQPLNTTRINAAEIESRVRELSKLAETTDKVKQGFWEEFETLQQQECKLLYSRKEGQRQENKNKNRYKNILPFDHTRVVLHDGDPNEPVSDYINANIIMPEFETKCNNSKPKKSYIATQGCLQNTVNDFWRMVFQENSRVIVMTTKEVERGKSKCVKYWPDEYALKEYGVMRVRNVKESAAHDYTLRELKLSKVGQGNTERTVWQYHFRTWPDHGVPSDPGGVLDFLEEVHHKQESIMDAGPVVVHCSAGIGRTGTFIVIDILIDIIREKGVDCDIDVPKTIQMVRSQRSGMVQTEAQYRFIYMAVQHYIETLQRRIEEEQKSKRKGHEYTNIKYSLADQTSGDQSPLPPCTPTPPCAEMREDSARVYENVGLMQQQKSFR
Sequence of striatal-enriched tyrosine phosphatase (STEP) catalytic domain (P54829 280-565 limits assumed): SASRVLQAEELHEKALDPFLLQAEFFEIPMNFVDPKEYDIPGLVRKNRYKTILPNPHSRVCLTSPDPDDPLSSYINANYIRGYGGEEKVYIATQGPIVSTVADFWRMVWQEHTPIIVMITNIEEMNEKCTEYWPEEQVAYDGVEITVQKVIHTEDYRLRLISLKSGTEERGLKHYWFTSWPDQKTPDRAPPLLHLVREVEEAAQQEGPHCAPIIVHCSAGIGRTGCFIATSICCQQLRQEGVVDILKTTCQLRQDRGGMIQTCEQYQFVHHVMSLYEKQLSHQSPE
Sequence of PTP1B catalytic domain (P18031 1-300): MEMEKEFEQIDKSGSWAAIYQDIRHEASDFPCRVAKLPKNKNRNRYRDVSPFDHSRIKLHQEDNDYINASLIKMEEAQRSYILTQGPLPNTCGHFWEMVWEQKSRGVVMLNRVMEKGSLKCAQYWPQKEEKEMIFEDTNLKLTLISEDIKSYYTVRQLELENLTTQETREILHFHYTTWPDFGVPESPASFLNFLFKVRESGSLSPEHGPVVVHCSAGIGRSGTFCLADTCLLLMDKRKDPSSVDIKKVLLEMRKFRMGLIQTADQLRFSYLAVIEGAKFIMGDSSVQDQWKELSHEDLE

| IC50 [1] [µM] | IC50 [2] [µM] | IC50 [3] [µM] | IC50 [4] [µM] | IC50 [5, 6] [µM] | IC50 ([5]; catalytic domain, DiFMUP at Km, read-out: SHP2 IC50) [µM] | Structure (SMILES) |
| --- | --- | --- | --- | --- | --- | --- |
| 27 | 1 to 20 | 1 to 20 | 1.9 | 1 to 20 | 1.1 | O=C1CCC/C1=C\c1ccc(-c2ccc(O)c(C(=O)Nc3ccccc3)c2)o1 [#03, 2-Hydroxy-5-(5-((2-oxocyclopentylidene)methyl)furan-2-yl)-N-phenylbenzamide] |
| – | 1 to 20 | 1 to 20 | – | 1 to 20 | – | O=C1/C(=C/c2ccc(-c3ccc(O)c(-c4nn[nH]n4)c3)o2)Sc2ccccc21 [#04, (Z)-2-((5-(4-Hydroxy-3-(2H-tetrazol-5-yl)phenyl)furan-2-yl)methylene)benzo[b]thiophen-3(2H)-one] |
| – | 20 to 100 | 1 to 20 | – | 1 to 20 | – | O=C1CCC/C1=C\c1ccc(-c2ccc(O)c(C(=O)O)c2)o1 [#06, 2-Hydroxy-5-(5-((2-oxocyclopentylidene)methyl)furan-2-yl)benzoic acid] |
| – | 1 to 20 | 1 to 20 | – | 1 to 20 | – | O=C(O)c1cc(-c2ccc(/C=C3\Oc4ccccc4C3=O)o2)ccc1O [#07, (Z)-2-Hydroxy-5-(5-((3-oxobenzofuran-2(3H)-ylidene)methyl)furan-2-yl)benzoic acid] |
| – | 1 to 20 | 1 to 20 | – | 1 to 20 | – | Nc1cccc(NC(=O)c2cc(-c3ccc(/C=C4\Sc5ccccc5C4=O)o3)ccc2O)c1 [#08, (Z)—N-(3-aminophenyl)-2-hydroxy-5-(5-((3-oxobenzo[b]thiophen-2(3H)-ylidene)methyl)furan-2-yl)benzamide] |
| – | 1 to 20 | 1 to 20 | – | 1 to 20 | – | O=C(O)c1cc(-c2ccc(/C=C3\Cc4ccccc4C3=O)o2)ccc1O [#09, 2-Hydroxy-5-(5-((1-oxo-1,3-dihydro-2H-inden-2-ylidene)methyl)furan-2-yl)benzoic acid] |
| – | 1 to 20 | 1 to 20 | – | 1 to 20 | – | O=C(NNc1ccccc1)c1cc(-c2ccc(/C=C3\Sc4ccccc4C3=O)o2)ccc1O [#11, (Z)-2-Hydroxy-5-(5-((3-oxobenzo[b]thiophen-2(3H)-ylidene)methyl)furan-2-yl)-N′-phenylbenzohydrazide] |
| – | 20 to 100 | 1 to 20 | – | 1 to 20 | – | O=C1/C(=C/c2ccc(-c3ccc(O)c(C(=O)N4CCCCC4)c3)o2)Sc2ccccc21 [#12, (Z)-2-((5-(4-Hydroxy-3-(piperidine-1-carbonyl)phenyl)furan-2-yl)methylene)benzo[b]thiophen-3(2H)-one] |
| – | 20 to 100 | 1 to 20 | – | – | – | COc1cccc(NC(=O)c2cccc(-c3ccc(/C=C4\Sc5ccccc5C4=O)o3)c2)c1 [#33] |
| – | 20 to 100 | 1 to 20 | – | – | – | O=C(O)c1cccc(-c2ccc(/C=C3\Cc4ccccc4C3=O)o2)c1 [#34] |
| – | 20 to 100 | 1 to 20 | – | – | – | COc1ccc(-c2ccc(/C=C3\Sc4ccccc4C3=O)o2)cc1C(=O)O [#35] |
| – | 20 to 100 | 20 to 100 | – | – | – | O=C1CCC/C1=C\c1ccc(-c2cccc(C(=O)O)c2)o1 [#36] |
| – | 20 to 100 | 20 to 100 | – | – | – | O=C(/C=C/c1ccc(-c2ccc(O)c(C(=O)O)c2)o1)c1ccccc1 [#37] |
| – | ≥ 100 | 20 to 100 | – | – | – | O=C(Nc1ccc2ccccc2n1)c1cccc(-c2ccc(/C=C3\Sc4ccccc4C3=O)o2)c1 [#38] |
| – | 20 to 100 | 20 to 100 | – | – | – | O=C1NC(=O)/C(=C/c2ccc(-c3cccc(C(=O)Nc4ccccc4)c3)o2)S1 [#39] |
| – | ≤ 1 | ≤ 1 | – | ≤ 1 | – | O=C1/C(=C/c2ccc(-c3ccc(O)c(C(=O)O)c3)o2)CCC/C1=C\c1ccc(-c2ccc(O)c(C(=O)O)c2)o1 [#40] |
| – | ≤ 1 | ≤ 1 | – | ≤ 1 | – | O=C(/C=C/c1ccc(-c2cccc(C(=O)O)c2)o1)/C=C/c1ccc(-c2cccc(C(=O)O)c2)o1 [#41] |
| – | ≤ 1 | ≤ 1 | – | ≤ 1 | – | O=C1/C(=C/c2ccc(-c3cccc(C(=O)O)c3)o2)CC/C1=C\c1ccc(-c2cccc(C(=O)O)c2)o1 [#42] |
| – | 1 to 20 | ≤ 1 | – | ≤ 1 | – | O=C(/C=C/c1ccc(-c2ccc(O)c(C(=O)O)c2)o1)c1cccc(C(=O)/C=C/c2ccc(-c3ccc(O)c(C(=O)O)c3)o2)c1 [#43] |
| – | 1 to 20 | ≤ 1 | – | – | – | O=C1/C(=C/c2ccc(-c3ccc(O)c(C(=O)O)c3)o2)CC/C1=C\c1ccc(-c2ccc(O)c(C(=O)O)c2)o1 [#44] |
| – | 1 to 20 | 1 to 20 | – | 1 to 20 | – | O=C(O)c1cccc(-c2ccc(/C=C/C(=O)c3cccc(C(=O)/C=C/c4ccc(-c5cccc(C(=O)O)c5)o4)c3)o2)c1 [#45] |
| – | 1 to 20 | 1 to 20 | – | 1 to 20 | – | N#Cc1cccc(-c2ccc(/C=C/C(=O)/C=C/c3ccc(-c4cccc(C#N)c4)o3)o2)c1 [#46] |
| – | 1 to 20 | 1 to 20 | – | – | – | O=C1/C(=C/c2ccc(O)c(C(=O)O)c2)CC/C1=C\c1ccc(O)c(C(=O)O)c1 [#47] |
| – | 20 to 100 | 20 to 100 | – | – | – | O=C(/C=C/c1ccc(Br)o1)c1cccc(C(=O)/C=C/c2ccc(Br)o2)c1 [#48] |
